Measured values taken from patent US20250188110A1, “SPECIFIC SMALL MOLECULE INHIBITORS THAT BLOCK KMT9 METHYLTRANSFERASE ACTIVITY AND FUNCTION” (ALBERT-LUDWIGS-UNIVERSITÄT FREIBURG, priority 2021, published 2025).
pIC50, pKd: −log10 of the molar value. Like-named read-outs stand apart in the source and are kept apart here.

Assays:
[1] = molecular target: T1, KMT9 (Homo sapiens, UniProt Q9Y5N5); test: KMT9 methyltransferase inhibition assay, MTaseGlo luminescence (from entry 155); format: biochemical; conditions: 100 nM KMT9, 5 μM ETF1, 1 μM SAM
T1 sequence (Q9Y5N5 1-214): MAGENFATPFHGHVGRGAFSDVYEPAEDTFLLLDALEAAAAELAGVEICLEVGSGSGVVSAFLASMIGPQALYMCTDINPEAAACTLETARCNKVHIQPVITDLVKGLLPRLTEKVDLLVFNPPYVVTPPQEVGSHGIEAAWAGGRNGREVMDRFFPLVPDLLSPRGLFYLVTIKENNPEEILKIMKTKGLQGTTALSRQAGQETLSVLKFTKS
T1 sequence (Q9UI30 1-120 isoform Q9UI30-2 partner): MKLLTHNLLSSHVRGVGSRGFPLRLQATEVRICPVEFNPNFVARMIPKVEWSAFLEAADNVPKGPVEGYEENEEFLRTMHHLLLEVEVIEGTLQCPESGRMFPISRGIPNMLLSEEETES
Procedure, shortened: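 KMT9 (100 nM final) pre-incubated with inhibitor for 15 min at room temperature, then reacted with 5 μM ETF1 and 1 μM SAM for 2 h at 30° C. at 2% DMSO final. MTaseGlo luminescence read after 60 min detection; IC50 reported in four potency bins.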

[2] = molecular target: T1, KMT9; test: KMT9 thermal shift assay (SyproOrange); format: binding
Procedure, shortened: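 ΔTm versus DMSO-only control is reported in bins (>20 K, 15–20 K, 10–15 K, ≤10 K), using Tm from Boltzmann sigmoidal fits of SyproOrange melt curves. KMT9 with compound in pH 8.5 BTP buffer containing MgCl2 and DTT was preincubated at 25° C, then ramped 1° C per 15 s up to 95° C.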

[3] = molecular target: T1, KMT9; test: Microscale thermophoresis (MST) KMT9 binding
Procedure, shortened: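 Kd from microscale thermophoresis: compound series against 20 nM His-KMT9 labelled via RED-Tris-NTA, buffer 25 mM HEPES (pH 7.5)/100 mM NaCl/1 mM DTT/0.05% Tween, 40% MST power, 100% LED. Reported as classes: A ≤10 nM, B >10–100 nM, C >100–1000 nM, D >1000 nM.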

[4] = from entry 155: MTaseGlo assay, read-out: Inhibition
[5] = ΔTm, 500 µM compound, 2 μM KMT9, 5X SO, read-out: Thermal shift
[6] = microscale thermophoresis, His-tag labelled KMT9 (20 nM), read-out: MST
[7] = MTaseGlo procedure (entries from 155), read-out: Inhibition (IC50)
[8] = 500 µM compound, 2 μM KMT9, read-out: Thermal shift (ΔTm)
[9] = His-tag labelled KMT9 20 nM, read-out: MST (Kd)
[10] = IC50 class, MTaseGlo procedure (entries from 155 on), read-out: Inhibition
[11] = ΔTm class, 500 uM compound, 2 μM KMT9, read-out: Thermal shift
[12] = His-tag labelled KMT9 20 nM, Kd class, read-out: MST

Row | pIC50 [1, 7] | ΔTm at 500 µM [2, 8] | pKd [3, 9] | Structure (SMILES) | also measured
1 |  |  |  | O[C@@H]1[C@H](O)[C@@H](C2CCNCC2)C[C@H]1n1cc(-c2ccn(Cc3ccccc3)n2)c2cnc(Cl)nc21 [Compound 522, (1R,2S,3R,5R)-3-(5-(1-benzyl-1H-pyrazol-3-yl)-2-chloro-7H-pyrrolo[2,3-d]pyrimidin-7-yl)-5-(piperidin-4-yl)cyclopentane-1,2-diol] | pIC50 [1, 4]: 5.00 to 6.00; ΔTm at 500 µM [2, 5]: 15 to 20 °C; pKd [3, 6]: 6.00 to 7.00
2 | 6.00 to 7.00 | 15 to 20 °C | ≥ 8.00 | NCc1cccc([C@H]2C[C@@H](n3cc(Br)c4c(N)nc(Cl)nc43)[C@H](O)[C@@H]2O)c1 [Compound 393, (1R,2S,3R,5R)-3-(4-amino-5-bromo-2-chloro-7H-pyrrolo[2,3-d]pyrimidin-7-yl)-5-(3-(aminomethyl)phen-yl) cyclopentane-1,2-diol] | 
3 |  |  |  | CN(CCCNCCc1ccc(F)cc1)C[C@H]1C[C@@H](n2cc(-c3ccn(C)n3)c3cnc(Cl)nc32)[C@H](O)[C@@H]1O [Compound 644, (1R,2S,3R,5R)-3-[2-Chloro-5-(1-methylpyrazol-3-yl)pyrrolo[2,3-d]pyrimidin-7-yl]-5-{[(3-{[2-(4-fluorophenyl)ethyl]amino}propyl)(methyl)amino]methyl}cyclopentane-1,2-diol] | pIC50 [1, 10]: < 5.00; ΔTm at 500 µM [2, 11]: ≤ 10 °C; pKd [3, 12]: < 6.00
4 | 6.00 to 7.00 | 15 to 20 °C | ≥ 8.00 | Nc1nc(Cl)nc2c1c(Br)cn2[C@@H]1C[C@H](CN(CCCNCCc2ccc(F)cc2)c2cn[nH]c2)[C@@H](O)[C@H]1O [Compound 538, (1R,2S,3R,5R)-3-(4-amino-5-bromo-2-chloro-7H-pyrrolo[2,3-d]pyrimidin-7-yl)-5-(((3-((4-fluorophenethyl)amino)propyl)(1H-pyrazol-4-yl)amino)methyl)cyclopentane-1,2-diol] | 
5 |  |  |  | O[C@@H]1[C@@H](CNCCCNCCc2ccccc2)C[C@@H](n2cc(-c3nc(Cc4ccccc4)cs3)c3cnc(Cl)nc32)[C@@H]1O [Compound 634, (1R,2S,3R,5R)-3-(5-(4-Benzylthiazol-2-yl)-2-chloro-7H-pyrrolo[2,3-d]pyrimidin-7-yl)-5-(((3-(phenethylamino)propyl)amino)methyl)cyclopentane-1,2-diol] | pIC50 [1, 4]: 5.00 to 6.00; ΔTm at 500 µM [2, 5]: 15 to 20 °C; pKd [3, 6]: 7.00 to 8.00
6 |  |  |  | O[C@@H]1[C@H](O)[C@@H](C2=CCCN(C3CC3)C2)C[C@H]1n1cc(-c2nc(Cc3ccccc3)cs2)c2cnc(Cl)nc21 [Compound 587, (1R,2S,3R,5R)-3-[5-(4-Benzyl-1,3-thiazol-2-yl)-2-chloropyrrolo[2,3-d]pyrimidin-7-yl]-5-(1-cyclopropyl-5,6-dihydro-2H-pyridin-3-yl)cyclopentane-1,2-diol] | pIC50 [1, 10]: < 5.00; ΔTm at 500 µM [2, 11]: ≤ 10 °C; pKd [3, 12]: < 6.00
7 |  |  |  | O[C@@H]1[C@@H](CNCCCNCCc2ccccc2)C[C@@H](n2cc(-c3cc(Cc4ccccc4)cs3)c3cncnc32)[C@@H]1O [Compound 637, (1R,2S,3R,5R)-3-(5-(4-benzylthiophen-2-yl)-7H-pyrrolo[2,3-d]pyrimidin-7-yl)-5-(((3-(phenethylamino)propyl)amino)methyl)cyclopentane-1,2-diol] | pIC50 [1, 4]: 5.00 to 6.00; ΔTm at 500 µM [2, 5]: 10 to 15 °C; pKd [3, 6]: < 6.00
8 |  |  |  | Nc1nc(Cl)nc2c1c(-c1ccn(Cc3ccccc3)n1)cn2[C@@H]1C[C@H](CNCCCNCCc2ccccc2)[C@@H](O)[C@H]1O [Compound 636, (1R,2S,3R,5R)-3-(4-Amino-5-(1-benzyl-1H-pyrazol-3-yl)-2-chloro-7H-pyrrolo[2,3-d]pyrimidin-7-yl)-5-(((3-(phenethylamino)propyl)amino)methyl)cyclopentane-1,2-diol] | pIC50 [1, 4]: 6.00 to 7.00; ΔTm at 500 µM [2, 5]: > 20 °C; pKd [3, 6]: ≥ 8.00
9 | 5.00 to 6.00 | 15 to 20 °C | 7.00 to 8.00 | Nc1nc(Cl)nc2c1c(-c1nc(Cc3ccccc3)cs1)cn2[C@@H]1C[C@H](C2CCN(C[C@H]3CCOC3)CC2)[C@@H](O)[C@H]1O [Compound 521R, (1R,2S,3R,5R)-3-(4-amino-5-(4-benzylthiazol-2-yl)-2-chloro-7H-pyrrolo[2,3-d]pyrimidin-7-yl)-5-(1-(((R)-tetrahydrofuran-3-yl)methyl)piperidin-4-yl)cyclopentane-1,2-diol] | 
10 | 5.00 to 6.00 | ≤ 10 °C | 6.00 to 7.00 | CNc1nc(Cl)nc2c1ccn2[C@@H]1C[C@H](c2ccccc2)[C@@H](O)[C@H]1O [Compound 596, (1R,2S,3R,5R)-3-(2-Chloro-4-(methylamino)-7H-pyrrolo[2,3-d]pyrimidin-7-yl)-5-phenylcyclopentane-1,2-diol] | 
11 | < 5.00 | ≤ 10 °C | < 6.00 | CNc1ncnc2c1ccn2[C@@H]1C[C@H](c2cn[nH]c2)[C@@H](O)[C@H]1O [Compound 657, (1R,2S,3R,5R)-3-[4-(Methylamino)pyrrolo[2,3-d]pyrimidin-7-yl]-5-(1H-pyrazol-4-yl)cyclopentane-1,2-diol] | 
12 | 5.00 to 6.00 | 10 to 15 °C | 6.00 to 7.00 | Nc1nc(Cl)nc2c1c(-c1nc(Cc3ccccc3)cs1)cn2[C@@H]1C[C@H](C2CCN(CC3CCCC3)CC2)[C@@H](O)[C@H]1O [Compound 523, (1R,2S,3R,5R)-3-(4-amino-5-(4-benzylthiazol-2-yl)-2-chloro-7H-pyrrolo[2,3-d]pyrimidin-7-yl)-5-(1-(cyclopentylmethyl)piperidin-4-yl)cyclopentane-1,2-diol] | 
13 | 6.00 to 7.00 | 15 to 20 °C | ≥ 8.00 | CN1CC=C([C@H]2C[C@@H](n3cc(-c4nccs4)c4c(N)nc(Cl)nc43)[C@H](O)[C@@H]2O)CC1 [Compound 493, (1R,2S,3R,5R)-3-(4-Amino-2-chloro-5-(thiazol-2-yl)-7H-pyrrolo[2,3-d]pyrimidin-7-yl)-5-(1-methyl-1,2,3,6-tetrahydropyridin-4-yl)cyclopentane-1,2-diol] | 
14 | 6.00 to 7.00 | > 20 °C | ≥ 8.00 | Nc1nc(Cl)nc2c1c(Br)cn2[C@@H]1CC(CNCCCNCCc2ccc(F)cc2)[C@@H](O)[C@H]1O (mixture of isomers) [Compound 547, (1R,2S,3R)-3-(4-amino-5-bromo-2-chloro-7H-pyrrolo[2,3-d]pyrimidin-7-yl)-5-(((3-((4-fluorophenethyl)amino)propyl)amino)methyl)cyclopentane-1,2-diol] | 
15 | 6.00 to 7.00 | 15 to 20 °C | 7.00 to 8.00 | Nc1nc(Cl)nc2c1c(-c1nc(Cc3ccccc3)cs1)cn2[C@@H]1C[C@H](C2CCN(Cc3ccn[nH]3)CC2)[C@@H](O)[C@H]1O [Compound 524, (1R,2S,3R,5R)-3-[4-amino-5-(4-benzyl-1,3-thiazol-2-yl)-2-chloropyrrolo[2,3-d]pyrimidin-7-yl]-5-[1-(2H-pyrazol-3-ylmethyl)piperidin-4-yl]cyclopentane-1,2-diol] | 
16 |  |  |  | CN1CCC([C@H]2C[C@@H](n3cc(-c4ccn(S(=O)(=O)c5ccccc5)n4)c4c(N)nc(Cl)nc43)[C@H](O)[C@@H]2O)CC1 [Compound 492, (1R,2S,3R,5R)-3-(4-Amino-2-chloro-5-(1-(phenylsulfonyl)-1H-pyrazol-3-yl)-7H-pyrrolo[2,3-d]pyrimidin-7-yl)-5-(1-methylpiperidin-4-yl)cyclopentane-1,2-diol] | pIC50 [1, 10]: 6.00 to 7.00; ΔTm at 500 µM [2, 11]: > 20 °C; pKd [3, 12]: ≥ 8.00
17 |  |  |  | Nc1nc(Cl)nc2c1c(-c1nc(Cc3ccccc3)cs1)cn2[C@@H]1C[C@H](C2CCN(CC3CC3)CC2)[C@@H](O)[C@H]1O [Compound 507, (1R,2S,3R,5R)-3-[4-amino-5-(4-benzyl-1,3-thiazol-2-yl)-2-chloropyrrolo[2,3-d]pyrimidin-7-yl]-5-[1-(cyclopropylmethyl)piperidin-4-yl]cyclopentane-1,2-diol] | pIC50 [1, 10]: 6.00 to 7.00; ΔTm at 500 µM [2, 11]: > 20 °C; pKd [3, 12]: ≥ 8.00
18 | 6.00 to 7.00 | 10 to 15 °C | ≥ 8.00 | COc1cccc([C@H]2C[C@@H](n3ccc4c(N)nc(Cl)nc43)[C@H](O)[C@@H]2O)c1 [Compound 670, (1R,2S,3R,5R)-3-{4-amino-2-chloropyrrolo[2,3-d]pyrimidin-7-yl}-5-(3-methoxyphenyl)cyclopentane-1,2-diol] | 
19 | 6.00 to 7.00 | 15 to 20 °C | ≥ 8.00 | COc1cc(CN)cc([C@H]2C[C@@H](n3ccc4c(N)nc(Cl)nc43)[C@H](O)[C@@H]2O)c1 [Compound 665, (1R,2S,3R,5R)-3-(4-amino-2-chloro-7H-pyrrolo[2,3-d]pyrimidin-7-yl)-5-(3-(aminomethyl)-5-methoxyphenyl)cyclopentane-1,2-diol] | 
